Measured values from patent US20210023523A1, “PARALLEL ORGANIC SYNTHESIS ON PATTERNED PAPER USING A SOLVENT-REPELLING MATERIAL” (The Governors of the University of Alberta, priority 2013, published 2021).

Columns and labels:
[1] = system: MCF-7 breast cancer cells; test: Culture of MCF-7 cells on peptide-modified array with or without paclitaxel (Taxol); assay type: cell-based; conditions: cells cultured on a peptide that induced morphological changes; Taxol for the last 4 days of seven; without drug: spread cells forming aggregate
Description: FIG. 19 illustrates changes such as drug-resistance and morphology observed when a peptide-modified array supported culture of MCF-7 breast cancer cells for seven days and was exposed to the anti-cancer drug paclitaxel (Taxol) for the last 4 days. FIG. 19a presents confocal images of calcein-stained cells after culture in media without taxol for four peptides (including two controls) and FIG. 19b correspond to cells cultured in media with Taxol.

MDA-MB-231-GFP cells = test: Short-term adhesion of MDA-MB-231-GFP cells to peptides synthesized on Teflon-patterned paper arrays; assay type: cell-based; conditions: for binding of cells to peptide-modified paper: confocal microscopy, FIG. 10b, 3 hours of incubation
Description: When immobilized on paper, 5 out of the 8 peptides synthesized supported adhesion of MDA-MB-231 breast carcinoma at levels similar to or higher than the positive control GRGDS. The other three peptides supported greater adhesion than the scrambled peptide, GGRDS.
The images represent short term adhesion of cells after 3 hours of incubation on the array.
In FIG. 14(a), a fluorescent gel scanner was used to validate adhesion of MDA-MB-231-GFP cells to phage-derived peptides on peptide-arrays. […] FIG. 14(c) illustrates digitization of the number of cells per zone from fluorescent gel scanner images of the 32 peptides. The (+) and (−) lines represent the intensity level of the positive and negative controls.
FIG. 18 illustrates a typical cell-binding experiment on a half array (40 peptides identified from two panning experiments, and 8 controls). […] FIG. 18c consists of the zones of interest for each peptide extracted from FIG. 18a, and organized by peptides. The average intensity of fluorescence for each peptide zone is then converted into a number of cells per zone through a calibration curve previously established for these cells (FIG. 18d). FIG. 18e is the resulting plot with standard deviation over the four replicates.

Compound	cell morphology [1]	binding of cells to peptide-modified paper (MDA-MB-231-GFP cells)	adhesion of MDA-MB-231 breast carcinoma cells to peptide immobilized on paper (MDA-MB-231-GFP cells; fluorescent gel scanner (GFP fluorescence), 3 hours of incubation on the array, known bioactive peptides, FIG. 10a)
CC(=O)O[C@H]1C(=O)[C@@]2(C)[C@H]([C@H](OC(=O)c3ccccc3)[C@]3(O)C[C@H](OC(=O)[C@H](O)[C@@H](NC(=O)c4ccccc4)c4ccccc4)C(C)=C1C3(C)C)[C@]1(OC(C)=O)CO[C@@H]1C[C@@H]2O [Taxol, paclitaxel]	isolated, rounded cells		
GGRDS (peptide identified by phage display panning on MDA-MB-231 cells) [scrambled peptide, negative control]		no binding	minimal binding
GRGDS (peptide identified by phage display panning on MDA-MB-231 cells)		binding	
